Assay results as given in patent US7807678B2, “Peptidomimetics of biologically active metallopeptides” (Palatin Technologies, Inc., priority 2001, dated 2010).
Read-outs that look alike come from different tables or passages of the source.

Experiments:
[1] = target: T1, MC1-R (B-16 mouse melanoma cells) (Mus musculus, UniProt Q01727); experiment: Competitive inhibition binding assay, 125I-NDP-α-MSH, MC1-R; details: for Inhibition at 1 μM MC1-R: 1 μM compound, inhibition of 125I-NDP-α-MSH binding, mean of triplicates, results less than 0% reported as 0%
T1 construct: B-16 mouse melanoma cells (containing MC1-R); endogenous in cells; host or cells: B-16 mouse melanoma cells
T1 sequence (Q01727 whole entry): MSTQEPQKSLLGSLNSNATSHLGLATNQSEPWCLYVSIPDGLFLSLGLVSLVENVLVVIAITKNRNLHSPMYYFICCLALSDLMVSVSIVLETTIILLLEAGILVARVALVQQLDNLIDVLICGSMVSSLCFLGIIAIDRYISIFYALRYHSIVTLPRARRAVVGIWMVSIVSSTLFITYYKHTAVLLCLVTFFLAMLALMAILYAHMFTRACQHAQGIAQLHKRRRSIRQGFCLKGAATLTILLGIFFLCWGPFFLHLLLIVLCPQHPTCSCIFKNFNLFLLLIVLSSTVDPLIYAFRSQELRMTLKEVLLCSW
How it was run: (§1)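 Membranes from hMC3-R, hMC4-R or hMC5-R cells, or B-16 mouse melanoma cells (MC1-R), were incubated 90 min at room temperature with 0.4 nM 125I-NDP-α-MSH in HEPES pH 7.2 with Mg2+/Ca2+/K+, and test compound generally at 1 μM. Filter-bound radioactivity was gamma counted. Specific binding was defined with 1 μM α-MSH; triplicate means.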

[2] = target: T1, MC1-R (B-16 mouse melanoma cells); experiment: Ki determination by the method of Example 4, MC1-R; format: binding
Experimental: (§2) The Ki (nM) of certain peptidomimetics were determined, as was the agonist/antagonist status with respect to MC4-R, Functional evaluation of compounds at melanocortin receptors was performed by measuring the accumulation of intracellular cAMP in HEK-293 cells expressing MC3-R, MC4-R or MC5-R, and in B-16 mouse melanoma cells (containing MC1-R). Antagonistic activity was determined by measuring the inhibition of α-MSH-induced cAMP levels following exposure to the compounds. Cells, suspended in Earle's Balanced Salt Solution containing 10 mM HEPES, pH 7.5, 5 mM MgCl2, 1 mM glutamine, 0.1% albumin and 0.6 mM 3-isobutyl-1-methyl-xanthine, a phosphodiesterase inhibitor, were plated in 96 well plates at a density of 0.5×10^5 cells per well. Cells were incubated with the test compounds in the presence or absence of α-MSH for 1 hour at 37° C. cAMP levels were measured by EIA (Amersham) in the cell lysates. Data analysis and EC50 values were determined using nonlinear regression analysis with Prism Graph-Pad software.

[3] = target: T2, MC3-R (Homo sapiens, UniProt P41968); experiment: Competitive inhibition binding assay, 125I-NDP-α-MSH, MC3-R; set-up: expressed in transfected cells; details: for Inhibition at 1 μM MC3-R: 1 μM compound, inhibition of 125I-NDP-α-MSH binding, mean of triplicates, results less than 0% reported as 0%
T2 sequence (P41968 whole entry): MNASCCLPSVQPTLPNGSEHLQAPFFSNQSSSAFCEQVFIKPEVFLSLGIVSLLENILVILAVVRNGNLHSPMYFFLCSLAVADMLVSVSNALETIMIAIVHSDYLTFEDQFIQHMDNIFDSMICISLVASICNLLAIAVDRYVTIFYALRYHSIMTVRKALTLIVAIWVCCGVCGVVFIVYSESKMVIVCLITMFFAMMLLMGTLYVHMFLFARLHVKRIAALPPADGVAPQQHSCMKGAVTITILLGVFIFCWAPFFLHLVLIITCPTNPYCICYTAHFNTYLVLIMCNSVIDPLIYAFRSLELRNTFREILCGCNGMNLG
How it was run: as §1

[4] = target: T3, MC4-R (Homo sapiens, UniProt P32245); experiment: Competitive inhibition binding assay, 125I-NDP-α-MSH, MC4-R; set-up: expressed in transfected cells; details: for Inhibition at 1 μM MC4-R: 1 μM compound, inhibition of 125I-NDP-α-MSH binding, mean of triplicates, results less than 0% reported as 0%
T3 sequence (P32245 whole entry): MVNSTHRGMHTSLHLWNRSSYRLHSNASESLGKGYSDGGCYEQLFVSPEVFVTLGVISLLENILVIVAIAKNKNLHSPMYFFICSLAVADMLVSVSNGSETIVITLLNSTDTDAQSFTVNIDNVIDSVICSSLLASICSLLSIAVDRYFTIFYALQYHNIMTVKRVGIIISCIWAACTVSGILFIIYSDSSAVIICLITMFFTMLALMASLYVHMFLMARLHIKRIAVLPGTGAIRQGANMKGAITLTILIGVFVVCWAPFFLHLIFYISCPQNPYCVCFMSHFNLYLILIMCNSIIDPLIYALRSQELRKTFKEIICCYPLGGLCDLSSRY
How it was run: as §1

[5] = target: T4, MC5-R (Homo sapiens, UniProt P33032); experiment: Competitive inhibition binding assay, 125I-NDP-α-MSH, MC5-R; set-up: expressed in transfected cells; details: for Inhibition at 1 μM MC5-R: 1 μM compound, inhibition of 125I-NDP-α-MSH binding, mean of triplicates, results less than 0% reported as 0%
T4 sequence (P33032 whole entry): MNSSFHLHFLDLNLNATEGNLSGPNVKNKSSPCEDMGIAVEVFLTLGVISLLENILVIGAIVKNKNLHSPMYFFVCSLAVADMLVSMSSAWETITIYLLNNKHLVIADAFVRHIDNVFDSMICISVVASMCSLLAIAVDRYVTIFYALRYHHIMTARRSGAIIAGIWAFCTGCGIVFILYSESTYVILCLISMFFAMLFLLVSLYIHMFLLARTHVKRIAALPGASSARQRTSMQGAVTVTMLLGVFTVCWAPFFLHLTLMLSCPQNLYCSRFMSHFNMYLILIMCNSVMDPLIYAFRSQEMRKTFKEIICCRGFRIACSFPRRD
How it was run: as §1

[6] = target: T2, MC3-R; experiment: Ki determination by the method of Example 4, MC3-R; format: binding; set-up: expressed in transfected cells; host or cells: HEK-293
Experimental: as §2

[7] = target: T3, MC4-R; experiment: Ki determination by the method of Example 4, MC4-R; format: binding; set-up: expressed in transfected cells; host or cells: HEK-293
Experimental: as §2

[8] = target: T4, MC5-R; experiment: Ki determination by the method of Example 4, MC5-R; format: binding; set-up: expressed in transfected cells; host or cells: HEK-293
Experimental: as §2

[9] = target: T1, MC1-R (B-16 mouse melanoma cells); experiment: cAMP assay for agonist/antagonist status, MC1-R; format: cell-based
Experimental: as §2

[10] = target: T5, MC4-R (HEK-293 cells) (Homo sapiens, UniProt P32245); experiment: cAMP assay for agonist/antagonist status, MC4-R; format: cell-based
T5 construct: expressed in transfected cells; host or cells: HEK-293
T5 sequence (P32245 whole entry): as the sequence (P32245 whole entry) above
Experimental: as §2

[11] = target: T6, MC5-R (HEK-293 cells) (Homo sapiens, UniProt P33032); experiment: cAMP assay for agonist/antagonist status, MC5-R; format: cell-based
T6 construct: expressed in transfected cells; host or cells: HEK-293
T6 sequence (P33032 whole entry): as the sequence (P33032 whole entry) above
Experimental: as §2

[12] = bound in μM, read-out: Ki MC3-R

inhibition at 1 µM [1] | Ki ([2]; read-out: Ki (nM) MC1-R) | inhibition at 1 µM [3] | inhibition at 1 µM [4] | inhibition at 1 µM [5] | Ki ([6]; read-out: Ki (nM) MC3-R) | Ki ([7]; read-out: Ki (nM) MC4-R) | Ki ([8]; read-out: Ki (nM) MC5-R) | Ki ([2]; bound in μM, read-out: Ki MC1-R) | Ki [6, 12] | Inhibition at 1 μM MC1-R [1] | agonist/antagonist status as to MC1-R [9] | agonist/antagonist status as to MC4-R [10] | Inhibition at 1 μM MC3-R [3] | Inhibition at 1 μM MC4-R [4] | Inhibition at 1 μM MC5-R [5] | agonist/antagonist status as to MC5-R [11] | agonist/antagonist status as to MC1-R ([9]; listed as Compound 2) | Ki ([7]; bound in μM, read-out: Ki MC4-R) | Ki ([8]; bound in μM, read-out: Ki MC5-R) | SMILES
96% | 3 nM | 88% | 99% | 89% | 77 nM | 2 nM | 52 nM | – | – | – | – | – | – | – | – | – | – | – | – | N=C(N)NCCCC1C(=O)N(CCc2c[nH]c3ccccc23)CCN1C(=O)C(Cc1ccc(Cl)cc1)NC(=O)C1Cc2ccccc2CN1 (stereo not drawn) [Example 14]
96% | 4 nM | 97% | 99% | 94% | 17 nM | 2 nM | 32 nM | – | – | – | – | – | – | – | – | – | – | – | – | N=C(N)NCCCC1C(=O)N(CCc2c[nH]c3ccccc23)CCN1C(=O)C(Cc1ccc(Cl)cc1)NC(=O)C(COCc1ccccc1)NC(=O)CCCCCCN (stereo not drawn) [Example 17]
63% | – | 60% | 99% | 75% | – | 4 nM | 104 nM | > 1000 nM | > 1000 nM | – | – | – | – | – | – | – | – | – | – | NC(COCc1ccccc1)C(=O)NC(Cc1ccc(Cl)cc1Cl)C(=O)N1CCN(CCc2ccc3ccccc3c2)C(=O)C1CCCNC1=NCCN1 (stereo not drawn) [Example 48]
– | 244 nM | – | – | – | 854 nM | 42 nM | 284 nM | – | – | 54% | agonist | agonist | 40% | 95% | 93% | – | – | – | – | N=C(N)NCCC[C@H]1C(=O)N2C(CC[C@@H]2COc2ccc3ccccc3c2)N1C(=O)[C@@H](Cc1ccccc1Cl)NC(=O)[C@@H]1C[C@@H](OCc2ccccc2)CN1 (stereo partly drawn) [Example 100]
– | 111 nM | – | – | – | 42 nM | 1 nM | 26 nM | – | – | 75% | inactive | antagonist | 88% | 100% | 96% | antagonist | – | – | – | N=C(N)NCCC[C@H]1C(=O)N2C(CC[C@@H]2COc2ccc3ccccc3c2)N1C(=O)[C@@H](Cc1ccc(Cl)cc1Cl)NC(=O)[C@@H]1Cc2ccccc2CN1 (stereo partly drawn) [Example 112]
– | 8 nM | – | – | – | – | – | – | – | > 1000 nM | – | agonist | – | – | – | – | – | potent MCR-1 agonist | > 1000 nM | > 1000 nM | [2H]N[C@@H](Cc1cnc[nH]1)C(=O)N[C@@H](Cc1ccccc1)C(=O)N1C2CC[C@H](COc3ccc4ccccc4c3)N2C(=O)[C@@H]1CCCCN (stereo partly drawn) [Example 180]
